Drawing on PubChem BioAssay AID624323 (Sanford-Burnham Center for Chemical Genomics, 2012), this text covers solubility for 27 compounds.

In this data set the test system is aqueous buffer solubility, pH 5.0/6.2/7.4. The experiment in a line: aqueous buffer solubility at three pH values, ADME assay, biophysical, set 2 (AID 624323). Conditions: at 100 µM, stronger effect = higher value.
[1] abbreviates: measured here: solubility at pH 5.0.
Setting [2] is: measured here: solubility at pH 6.2.

Values after ≈ are worked out from the molar mass of the structure shown. Active and inactive are the calls of the source. No rule for the calls is given here.

For the compound `O=C(O)CCC(NS(=O)(=O)c1ccc(-c2ccccc2)cc1)C(=O)O` (stereo unspecified), the solubility (as a rule, the dissolved amount per volume that the medium holds) was more than 36 µg/mL. This compound displayed a solubility under setting [1] of more than 36 µg/mL. For the same compound, under setting [2], the solubility was more than 36 µg/mL.
Regarding `CC(C)(C)OC(=O)NCCc1nnc(S(=O)(=O)Cc2ccc(Cl)cc2Cl)o1`, the solubility was 7.4 µg/mL (inactive) (≈ 17 µM). The same compound had a solubility under setting [1] of 14.6 µg/mL (≈ 33.5 µM). For the same compound, under setting [2], the solubility is 4.8 µg/mL (≈ 11 µM).
Regarding `CSc1nc(-c2ccc(C)cc2)nc(C(Cl)Cl)n1`, the solubility is 0.01 µg/mL (inactive) (≈ 0.0333 µM). The compound also had a solubility under setting [1] of 0.02 µg/mL (≈ 0.0666 µM). This compound also had a solubility under setting [2] of 0.01 µg/mL (≈ 0.0333 µM).
Consider `Cc1ccc(NS(=O)(=O)c2ccc3c(c2)CCC(=O)N3)cc1C`, for which the solubility is 27.1 µg/mL (≈ 82 µM). The compound further registered a solubility under setting [1] of 26.2 µg/mL (≈ 79.3 µM). In addition, the solubility under setting [2] was more than 33 µg/mL.
As for `COc1ccc(N(C(=O)CCl)C(C(=O)NCCc2ccccc2)c2cccs2)cc1Cl` (stereo unspecified), the solubility was 1.2 µg/mL (inactive) (≈ 2.51 µM). Also, the solubility under setting [1] was 0.61 µg/mL (≈ 1.28 µM). For the same compound, the solubility under setting [2] stood at 0.86 µg/mL (≈ 1.8 µM).
Taken in the same sequence, the figures for `Cc1ccc(NC(=O)CCC(=O)N/N=C/c2ccc([N+](=O)[O-])o2)cc1C` were 0.29 µg/mL (inactive) (≈ 0.809 µM), 0.19 µg/mL (≈ 0.53 µM) and 0.3 µg/mL (≈ 0.837 µM).
`CN1CSC(=S)N(C)C1`: the solubility is more than 16 µg/mL. Further, the solubility under setting [1] was found to be 12.4 µg/mL (≈ 76.4 µM). Also, under setting [2], the solubility came out at 12.7 µg/mL (≈ 78.3 µM).
Turning to `COc1ccc(S(=O)(=O)n2nc(OC(=O)c3ccccc3)cc2N)cc1`, the solubility is 14.9 µg/mL (≈ 39.9 µM). The same compound displayed a solubility under setting [1] of 0.46 µg/mL (≈ 1.23 µM). Under setting [2], the solubility was 2 µg/mL (≈ 5.36 µM).
For `O=C1NCCCc2c1oc1ccc(O)cc21`, the solubility is more than 22 µg/mL. Under setting [1], this compound had a solubility of more than 22 µg/mL. The solubility under setting [2] was more than 22 µg/mL.
In the case of `CN(C)c1nc(N)nc(CSc2nnnn2-c2cccc3ccccc23)n1`, the solubility is 1 µg/mL (inactive) (≈ 2.64 µM). The compound further registered a solubility under setting [1] of 2.8 µg/mL (≈ 7.38 µM). The same compound gave a solubility under setting [2] of 1 µg/mL (≈ 2.64 µM).
Regarding `Cc1ccnc(NC(=O)CCCOc2cc(=O)n(C)c3ccccc23)c1`, the solubility was 9.1 µg/mL (inactive) (≈ 25.9 µM). The solubility under setting [1] was 19 µg/mL (≈ 54.1 µM). The same compound displayed a solubility under setting [2] of 9.3 µg/mL (≈ 26.5 µM).
`CC1CCCN(C(C(=O)Nc2ccc3c(c2)OCCO3)c2ccccc2)C1` (stereo unspecified): the solubility is 1.7 µg/mL (inactive) (≈ 4.64 µM). For the same compound, the solubility under setting [1] was more than 36 µg/mL. The compound also gave a solubility under setting [2] of more than 36 µg/mL.
For `c1ccc(CC2CCN(c3ncnc4sccc34)CC2)cc1`, the solubility was < 0.01 µg/mL (inactive). Also, the solubility under setting [1] was less than 0.01 µg/mL. In addition, the solubility under setting [2] is 0.01 µg/mL (≈ 0.0323 µM).
`CCCOc1ccc(-c2nc(OC)c3ccccc3n2)cc1`: the solubility is 0.02 µg/mL (inactive) (≈ 0.0679 µM). The same compound returned a solubility under setting [1] of 0.05 µg/mL (≈ 0.17 µM). The compound also registered a solubility under setting [2] of less than 0.01 µg/mL.
For the compound `O=[N+]([O-])c1ccc(CN2CCOCCOCCN(Cc3ccc([N+](=O)[O-])cc3)CCOCC2)cc1`, the solubility was 27.4 µg/mL (≈ 56.1 µM). The same compound yielded a solubility under setting [1] of more than 48 µg/mL. The compound further gave a solubility under setting [2] of more than 48 µg/mL.
On to `Cc1cc(-c2nnc3n2CCCCC3)c(C)n1-c1ccccc1`, for which the solubility is more than 30 µg/mL. Moreover, under setting [1], the solubility is more than 30 µg/mL. Under setting [2], the solubility was more than 30 µg/mL.
In the case of `Cc1cc(C)n(-c2nc(NCCCO)c3c4c(sc3n2)CCCC4)n1`, the solubility was 20.7 µg/mL (≈ 57.9 µM). Under setting [1], this compound gave a solubility of 17.6 µg/mL (≈ 49.2 µM). Under setting [2], this compound registered a solubility of 20.4 µg/mL (≈ 57.1 µM).
In the case of `COc1nc(-c2ccccc2)nnc1-c1ccccc1`, the solubility was 0.38 µg/mL (inactive) (≈ 1.44 µM). Under setting [1], this compound registered a solubility of 1 µg/mL (≈ 3.8 µM). Under setting [2], this compound displayed a solubility of 0.78 µg/mL (≈ 2.96 µM).
Taken in the same sequence, the figures for `Cc1cc2c(s1)c1cnn(Cc3ccccc3F)c(=O)c1n2C` were 0.11 µg/mL (inactive) (≈ 0.336 µM), 0.16 µg/mL (≈ 0.489 µM) and 0.19 µg/mL (≈ 0.58 µM).
In the case of `CCCN1CNc2c(c(=O)[nH]c(=S)n2CCc2ccc(OC)c(OC)c2)C1`, the solubility is more than 39 µg/mL. Under setting [1], the solubility was more than 39 µg/mL. In addition, the solubility under setting [2] was more than 39 µg/mL.
Take `Cc1ccc(C)c(OCCn2cc(C(=O)O)c3ccccc32)c1`: the solubility is 20.1 µg/mL (≈ 65 µM). The same compound showed a solubility under setting [1] of 0.19 µg/mL (≈ 0.614 µM). Moreover, the solubility under setting [2] was found to be 0.34 µg/mL (≈ 1.1 µM).
With `CCCn1ncc(CN2CCCC(C(=O)c3cccc(OC(C)C)c3)C2)c1C` (stereo unspecified), the solubility was more than 38 µg/mL. Further, the solubility under setting [1] is more than 38 µg/mL. Besides, the solubility under setting [2] is more than 38 µg/mL.
Regarding `O=C(CSc1cccc2cccnc12)N1CCCC1`, the solubility was more than 27 µg/mL. Also, the solubility under setting [1] was more than 27 µg/mL. For the same compound, the solubility under setting [2] was more than 27 µg/mL.
Take `COc1ccc(OC)c(S(=O)(=O)Nc2cnc3ccccc3c2)c1`: the solubility is 25.8 µg/mL (≈ 74.9 µM). Moreover, the solubility under setting [1] was found to be 20.8 µg/mL (≈ 60.4 µM). Besides, under setting [2], the solubility was 25.7 µg/mL (≈ 74.6 µM).
As for `Brc1cc2c(cc1C1Nc3ccccc3C3C=CCC31)OCO2` (stereo unspecified), the solubility was < 0.01 µg/mL (inactive). This compound gave a solubility under setting [1] of less than 0.01 µg/mL. This compound also showed a solubility under setting [2] of 0.04 µg/mL (≈ 0.108 µM).
Regarding `CN(C)c1oc(-c2ccc(OCc3ccc(Cl)cc3)cc2)nc1C#N`, the solubility is 0.08 µg/mL (inactive) (≈ 0.226 µM). Moreover, the solubility under setting [1] came to 0.17 µg/mL (≈ 0.48 µM). The compound also showed a solubility under setting [2] of less than 0.01 µg/mL.
Turning to `CCOc1ccc(-c2nc(-c3ccncc3)no2)cc1OCC`, the solubility was 1.3 µg/mL (inactive) (≈ 4.18 µM). Also, the solubility under setting [1] stood at 1.1 µg/mL (≈ 3.53 µM). The solubility under setting [2] was 1.3 µg/mL (≈ 4.18 µM).
